# Test results: PubChem BioAssay AID1919014 (Molecular Pharmacology Branch, DTP, NCI, 2023)
# Tested on: NCI-H1341 complex spheroids, percent test/control
# Assay: Anticancer human tumor NCI-H1341 cell line growth inhibition [AhR];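 note: spheroids exposed to agents for seven days before readout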
# Settings: for IC50: curve of first compound; for viability, T/C: stronger effect = lower value
# Outline: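 Agents were dosed in half-log steps down from roughly clinical Cmax, or from 10 microM where Cmax was unknown, alone and with AhR antagonists. Read-out: percent test/control growth of tumor spheroids containing HUVEC and MSC stromal cells.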
# [1] = second compound 0.1 µM, first compound 0.000316 µM
# [2] = second compound 0.1 µM, first compound 0.001 µM
# [3] = second compound 0.1 µM, first compound 0.00316 µM
# [4] = second compound 0.1 µM, first compound 0.01 µM
# [5] = second compound 0.1 µM, first compound 0.0316 µM
# [6] = second compound 0.1 µM, first compound 0.1 µM
# [7] = second compound 0.316 µM, first compound 0.000316 µM
# [8] = second compound 0.316 µM, first compound 0.001 µM
# [9] = second compound 0.316 µM, first compound 0.00316 µM
# [10] = second compound 0.316 µM, first compound 0.01 µM
# [11] = second compound 0.316 µM, first compound 0.0316 µM
# [12] = second compound 0.316 µM, first compound 0.1 µM
# [13] = second compound 1 µM, first compound 0.000316 µM
# [14] = second compound 1 µM, first compound 0.001 µM
# [15] = second compound 1 µM, first compound 0.00316 µM
# [16] = second compound 1 µM, first compound 0.01 µM
# [17] = second compound 1 µM, first compound 0.0316 µM
# [18] = second compound 1 µM, first compound 0.1 µM
# [19] = second compound 3.16 µM, first compound 0.000316 µM
# [20] = second compound 3.16 µM, first compound 0.001 µM
# [21] = second compound 3.16 µM, first compound 0.00316 µM
# [22] = second compound 3.16 µM, first compound 0.01 µM
# [23] = second compound 3.16 µM, first compound 0.0316 µM
# [24] = second compound 3.16 µM, first compound 0.1 µM
# [25] = second compound 10 µM, first compound 0.000316 µM
# [26] = second compound 10 µM, first compound 0.001 µM
# [27] = second compound 10 µM, first compound 0.00316 µM
# [28] = second compound 10 µM, first compound 0.01 µM
# [29] = second compound 10 µM, first compound 0.0316 µM
# [30] = second compound 10 µM, first compound 0.1 µM
IC50 (second compound 0.1 µM) [nM],IC50 (second compound 0.316 µM) [nM],IC50 (second compound 1 µM) [nM],IC50 (second compound 3.16 µM) [nM],IC50 (second compound 10 µM) [nM],Structure (SMILES),"viability, T/C [1] [%]","viability, T/C [2] [%]","viability, T/C [3] [%]","viability, T/C [4] [%]","viability, T/C [5] [%]","viability, T/C [6] [%]","viability, T/C [7] [%]","viability, T/C [11] [%]","viability, T/C [12] [%]","viability, T/C [17] [%]","viability, T/C [18] [%]","viability, T/C [23] [%]","viability, T/C [24] [%]","viability, T/C [29] [%]","viability, T/C [30] [%]",other results
31.3,60.3,48.9,31.4,32.4,CC[C@@]1(O)C(=O)OCc2c1cc1n(c2=O)Cc2cc3c(CN(C)C)c(O)ccc3nc2-1 + CC(CO)NC(=O)c1cc(-c2ccc(Cl)cc2)nn(-c2cnn(C)c2)c1=O,81.7,85.1,103,81.5,50.3,40.2,84.4,58.3,43.5,58.8,37.2,49.5,39.1,48,36.6,"viability, T/C [8]: 66.2%; viability, T/C [9]: 84.6%; viability, T/C [10]: 75.8%; viability, T/C [13]: 90.7%; viability, T/C [14]: 84%; viability, T/C [15]: 65%; viability, T/C [16]: 76.8%; viability, T/C [19]: 87.3%; viability, T/C [20]: 74.8%; viability, T/C [21]: 79.2%; viability, T/C [22]: 71.4%; viability, T/C [25]: 80.8%; viability, T/C [26]: 77.8%; viability, T/C [27]: 69.2%; viability, T/C [28]: 70.1%"
< 31.6,< 31.6,< 31.6,< 31.6,< 31.6,Nc1ccn(C2OC(CO)C(O)C2(F)F)c(=O)n1 (stereo not given) + CC(CO)NC(=O)c1cc(-c2ccc(Cl)cc2)nn(-c2cnn(C)c2)c1=O,–,–,–,–,28,28,–,30.9,29.1,28.6,29.3,30.1,29.1,33.6,29.8,"viability, T/C (second compound 0.1 µM, first compound 0.316 µM): 27.7%; viability, T/C (second compound 0.1 µM, first compound 1 µM): 25.3%; viability, T/C (second compound 0.1 µM, first compound 3.16 µM): 27.3%; viability, T/C (second compound 0.1 µM, first compound 10 µM): 26.4%; viability, T/C (second compound 0.316 µM, first compound 0.316 µM): 25.6%; viability, T/C (second compound 0.316 µM, first compound 1 µM): 26.9%; viability, T/C (second compound 0.316 µM, first compound 3.16 µM): 24.4%; viability, T/C (second compound 0.316 µM, first compound 10 µM): 24.1%; viability, T/C (second compound 1 µM, first compound 0.316 µM): 30.5%; viability, T/C (second compound 1 µM, first compound 1 µM): 23.8%; viability, T/C (second compound 1 µM, first compound 3.16 µM): 26.1%; viability, T/C (second compound 1 µM, first compound 10 µM): 25.9%; viability, T/C (second compound 3.16 µM, first compound 0.316 µM): 30%; viability, T/C (second compound 3.16 µM, first compound 1 µM): 24%; viability, T/C (second compound 3.16 µM, first compound 3.16 µM): 25.3%; viability, T/C (second compound 3.16 µM, first compound 10 µM): 27%; viability, T/C (second compound 10 µM, first compound 0.316 µM): 27.4%; viability, T/C (second compound 10 µM, first compound 1 µM): 24.3%; viability, T/C (second compound 10 µM, first compound 3.16 µM): 22.3%; viability, T/C (second compound 10 µM, first compound 10 µM): 21.4%"
> 100,> 100,> 100,> 100,> 100,Cn1ncnc1C1c2n[nH]c(=O)c3cc(F)cc(c23)NC1c1ccc(F)cc1 (stereo not given) + CC(CO)NC(=O)c1cc(-c2ccc(Cl)cc2)nn(-c2cnn(C)c2)c1=O,79.2,83.4,84,73.5,83.2,77.6,85,91.8,72.3,80.5,73.9,76.2,65.9,66.1,69.2,"viability, T/C [8]: 95.7%; viability, T/C [9]: 88.8%; viability, T/C [10]: 76.9%; viability, T/C [13]: 72.5%; viability, T/C [14]: 95.4%; viability, T/C [15]: 77.5%; viability, T/C [16]: 85.7%; viability, T/C [19]: 87.5%; viability, T/C [20]: 93.8%; viability, T/C [21]: 77.1%; viability, T/C [22]: 62.4%; viability, T/C [25]: 72.4%; viability, T/C [26]: 84.2%; viability, T/C [27]: 81%; viability, T/C [28]: 65.2%"
